# Laboratory results published in PMC7251097, “Aspartate/asparagine-β-hydroxylase: a high-throughput mass spectrometric assay for discovery of small molecule inhibitors” (Scientific Reports, 2020).
# Structures can show the parent of a compound that is named as a salt. Where two headings read alike, the source gives them in different places.
# Biological target: T1, His6-AspH315–758 (human aspartate/asparagine-β-hydroxylase, AspH) (Homo sapiens, UniProt Q12797)
# T1 construct: N-Terminally His6-tagged human AspH315–758 (His6-AspH315–758) was produced in E. coli BL21 (DE3) cells; made in house; host or cells: E. coli BL21 (DE3), pET-28a(+) vector
# T1 sequence (Q12797 315-758): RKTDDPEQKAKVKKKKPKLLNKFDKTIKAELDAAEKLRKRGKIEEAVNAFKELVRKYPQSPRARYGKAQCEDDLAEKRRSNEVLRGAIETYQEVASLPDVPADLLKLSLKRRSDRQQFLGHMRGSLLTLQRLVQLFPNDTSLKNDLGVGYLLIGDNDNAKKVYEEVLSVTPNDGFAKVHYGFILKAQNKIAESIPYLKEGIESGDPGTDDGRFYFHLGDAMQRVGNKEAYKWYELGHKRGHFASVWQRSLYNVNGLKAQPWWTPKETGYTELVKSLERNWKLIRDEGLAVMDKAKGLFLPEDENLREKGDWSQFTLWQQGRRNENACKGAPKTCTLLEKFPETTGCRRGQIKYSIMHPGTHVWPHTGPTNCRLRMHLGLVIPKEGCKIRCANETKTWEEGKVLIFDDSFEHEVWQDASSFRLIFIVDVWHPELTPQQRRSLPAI
# Assay: SPE-MS AspH inhibition assay (LOPAC screen at fixed 20 μM and IC50 dose-response), hydroxylation of cyclic peptide hFX-CP101–119
# Format: biochemical
# [1] = LOPAC Plate 4, compound at 20 uM
# [2] = LOPAC Plate 4, compound at 20 uM, substrate conversion
# [3] = LOPAC Plate 4, compound at 20 uM, read-out: % inhibition
# [4] = LOPAC compound at 20uM, plate 2, conversion of substrate peptide
# [5] = LOPAC compound at 20uM, plate 2, normalised to DMSO and 2,4-PDCA controls, read-out: Plate 2 (% inhibition)
# [6] = LOPAC compound at fixed 20 uM, plate 1, normalised to DMSO and 2,4-PDCA controls
# [7] = LOPAC compound at fixed 20 uM, substrate conversion, plate 1
# [8] = AspH activity, fixed compound concentration 20 μM, initial LOPAC screen, 0.5%v/v DMSO, read-out: Inhibition at 20 µM [%]
# [9] = LOPAC compound at 20uM, plate 3, conversion of substrate peptide
# [10] = LOPAC compound at 20uM, plate 2, normalised to DMSO and 2,4-PDCA controls
structure (smiles),measurement,setting,value
COC1(C2=NCCN2)COc2ccccc2O1.Cl (stereo not shown) [RX 821002 hydrochloride],% inhibition,[1],-13.78%
same,% conversion,[2],41.17%
COc1ccccc1CN[C@@H]1CCCN[C@@H]1c1ccccc1.Cl.Cl.O [CP-100263 dihydrochloride hydrate],% inhibition,[1],-15.48%
same,% conversion,[2],41.75%
CNCCC(Oc1ccccc1OC)c1ccccc1 (stereo not shown) [Nisoxetine hydrochloride],Plate 3 (% conversion),,39.53%
Cc1scc2c1N(C(=O)CN1CCN(C)CC1)c1ccccc1NC2=O [Telenzepine dihydrochloride],% conversion,[2],38.43%
same,inhibition at 20 µM,[3],-5.75%
COc1cc2nc(N3CCN(C(=O)C4COc5ccccc5O4)CC3)nc(N)c2cc1OC (stereo not shown) [Doxazosin mesylate],Plate 2 (% conversion),[4],41.90%
same,inhibition at 20 µM,[5],-17.8%
COc1ccc2c(c1)CC[C@@H]1[C@@H]2CC[C@]2(C)[C@@H](NCCCCCCN3C(=O)CCC3=O)CC[C@@H]12 [U-73343],Plate 3 (% conversion),,43.26%
"NC(=O)CI [Iodoacetamide, reference compound]",Inhibition at 20 µM [%],,102.0%
CC(C)(CO)Cc1cc(C(C)(C)C)c(O)c(C(C)(C)C)c1 [CGP-7930],Plate 1 (% inhibition),[6],-11.33%
same,Plate 1 (% conversion),[7],39.68%
"O=c1c(O)c(-c2cc(O)c(O)c(O)c2)oc2cc(O)cc(O)c12 [Myricetin, reference compound]",Plate 3 (% conversion),,2.65%
same,inhibition at 20 µM,[8],99.4%
"O=C(Nc1cccc(C(=O)Nc2ccc(S(=O)(=O)O)c3cc(S(=O)(=O)O)cc(S(=O)(=O)O)c23)c1)Nc1cccc(C(=O)Nc2ccc(S(=O)(=O)O)c3cc(S(=O)(=O)O)cc(S(=O)(=O)O)c23)c1 [NF 023, reference compound]",Plate 3 (% conversion),[9],4.28%
"CC(=O)[C@H]1CC[C@H]2[C@@H]3CC[C@H]4C[C@H](O)CC[C@]4(C)[C@H]3C(=O)C[C@]12C [5alpha-Pregnan-3alpha-ol-11,20-dione]",Plate 3 (% conversion),,35.35%
CN(C)CCC(c1ccccc1)c1ccccn1 (stereo not shown) [Pheniramine maleate],% conversion,[2],37.25%
same,inhibition at 20 µM,[3],-2.28%
C[C@@]12C(=O)OC(=O)[C@]1(C)[C@H]1CC[C@@H]2O1 [Cantharidin],Plate 1 (% conversion),,17.40%
same,Plate 1 (% inhibition),,55.02%
O=C(CCc1ccc(O)cc1)c1c(O)cc(O)cc1O [Phloretin],% conversion,[2],29.69%
CCC(NC(C)C)C(O)c1ccc(O)c(O)c1.CS(=O)(=O)O (stereo not shown) [Isotharine mesylate],Plate 3 (% conversion),[9],6.91%
COC(=O)C1=C(C)NC(C)=C(C(=O)O[C@@H]2CCCN(Cc3ccccc3)C2)[C@@H]1c1cccc([N+](=O)[O-])c1.Cl (racemic) [Benidipine hydrochloride],Plate 2 (% conversion),[4],31.43%
same,Plate 2 (% inhibition),[10],13.51%
Cl.O=C1NCCc2[nH]c(-c3ccncc3)cc21 [PHA 767491 hydrochloride],Plate 1 (% inhibition),[6],-17.71%
same,Plate 1 (% conversion),[7],41.82%
CS(=O)(=O)c1cccc(CNc2nc(Nc3ccc4c(c3)CCC(=O)N4)ncc2C(F)(F)F)c1 [PF-573228],Plate 5 (% inhibition),"plate 5 (Pfitzer), test compounds at fixed 20 μM",7.79%
same,Plate 5 (% conversion),"plate 5 (Pfitzer), test compounds at fixed 20 μM, mean conversion DMSO 32.88",33.66%
O=C1c2ccccc2C(=O)c2c(NCCc3ccc(O)cc3)ccc(NCCc3ccc(O)cc3)c21 [JFD00244],Plate 2 (% conversion),[4],12.89%
same,Plate 2 (% inhibition),[10],68.90%
C[C@](N)(Cc1ccc(O)cc1)C(=O)O [L-alpha-Methyl-p-tyrosine],Plate 3 (% conversion),,32.12%
COC(=O)[C@@H]1[C@H]2C[C@H]3c4[nH]c5ccccc5c4CCN3C[C@@H]2CC[C@@H]1O [Yohimbine hydrochloride],inhibition at 20 µM,,-4.13%
NCCc1c[nH]c2ccccc12 [Tryptamine hydrochloride],Plate 1 (% conversion),,34.54%
same,Plate 1 (% inhibition),,3.95%
Nc1nc(Cl)nc2c1ncn2[C@@H]1O[C@H](COP(=O)(O)OP(=O)(O)OP(=O)(O)O)C(O)C1O (stereo in doubt),Plate 2 (% conversion),[4],11.93%
same,Plate 2 (% inhibition),[10],71.75%
CC(C)C[C@H](NC(=O)[C@@H](O)[C@H](N)Cc1ccccc1)C(=O)O [Bestatin hydrochloride],Plate 1 (% inhibition),[6],-4.72%
same,Plate 1 (% conversion),[7],37.46%
N#C/C(=C\c1ccc(-c2cc(Cl)ccc2Cl)o1)C(=O)Nc1cccc2ncccc12 [AGK2],% conversion,[2],36.60%
"O.O=c1cc(-c2ccccc2)oc2c(O)c(O)ccc12 [7,8-Dihydroxyflavone hydrate, reference compound]",% conversion,,2.70%
same,inhibition at 20 µM,,99%
same,inhibition at 20 µM,read-out: Inhibition at 20 µM [%],99%
Cl.c1ccc(CN(CC2=NCCN2)c2ccccc2)cc1 [Antozoline hydrochloride],Plate 1 (% inhibition),[6],-17.43%
same,Plate 1 (% conversion),[7],41.73%
O=C1CCc2cc(OCCCCc3nnnn3C3CCCCC3)ccc2N1 [Cilostazol],Plate 1 (% inhibition),[6],-4.97%
same,Plate 1 (% conversion),[7],37.54%
Cl.Clc1cc(I)cc(Cl)c1NC1=NCCN1 [p-Iodoclonidine hydrochloride],Plate 3 (% conversion),[9],40.33%
Cc1cccc(/C=C/c2ccccc2)n1 [SIB 1893],% conversion,[2],34.05%
C[C@@](Cc1ccc(O)c(O)c1)(NN)C(=O)O [S-(-)-Carbidopa],Plate 2 (% conversion),[4],7.52%
same,Plate 2 (% inhibition),[10],84.92%
Clc1nccc2c1ccc1ccccc12 [CBIQ],Plate 1 (% inhibition),[6],-13.62%
same,Plate 1 (% conversion),[7],40.45%
CCN(CC)c1ncnc2c1ncn2[C@@H]1O[C@H](COP(=O)([O-])OP(=O)([O-])C(Br)(Br)P(=O)([O-])O)[C@@H](O)[C@H]1O.[Na+].[Na+].[Na+] [ARL 67156 trisodium salt],Plate 1 (% inhibition),[6],82.09%
same,Plate 1 (% conversion),[7],8.30%
CCN(CC)CCNC(=O)c1ccc(NC(C)=O)cc1.Cl [N-Acetylprocainamide hydrochloride],Plate 1 (% inhibition),[6],3.70%
same,Plate 1 (% conversion),[7],34.63%
COc1cc(Cc2cnc(N)nc2N)cc(OC)c1OC [Trimethoprim],% conversion,[2],37.33%
COc1ccccc1N1CCN(CCN(C(=O)C2CCCCC2)c2ccccn2)CC1.O=C(O)/C=C\C(=O)O [WAY-100635 maleate],% conversion,,42.39%
same,% inhibition,20 µM,-17.34%
"O=c1cc(-c2ccc(O)cc2)oc2cc(O)cc(O)c12 [Apigenin, reference compound]",inhibition at 20 µM,[8],95.8%
same,Plate 1 (% inhibition),[6],95.84%
same,Plate 1 (% conversion),[7],3.68%
"c1ccc(-c2ccccn2)nc1 [2,2-Bipyridyl]",Plate 2 (% conversion),,27.94%
same,Plate 2 (% inhibition),20 µM,23.93%
CCOC(=O)c1cnc2c(cnn2CC)c1NN=C(C)C [Etazolate hydrochloride],Plate 2 (% conversion),[4],58.51%
same,inhibition at 20 µM,[5],-67.4%
